Values quoted from earlier work, collected in US20240131064A1, “TREATMENT OF CANCER PATIENTS WITH TUMOR INFILTRATING LYMPHOCYTE THERAPIES IN COMBINATION WITH BRAF INHIBITORS AND/OR MEK INHIBITORS” (Iovance Biotherapeutics, Inc., priority 2020, published 2024).
Like-named read-outs stand apart in the source and are kept apart here.

Experiments:
[1] = tested on: BRAF V600E mutation-positive, unresectable or metastatic melanoma; conditions: 187 patients treated, no prior BRAF or MEK inhibitor
[2] = percent of patients

Molecule: pembrolizumab: PD-1 inhibitor, heavy chain SEQ ID NO:168, light chain SEQ ID NO:169
- ORR (metastatic melanoma; following prior therapy with ipilimumab): 21%
- rate of durable responses relative to aldesleukin treatment (metastatic melanoma; metastatic melanoma): approximately double

Molecule: CC(C)(C)c1nc(-c2cccc(NS(=O)(=O)c3c(F)cccc3F)c2F)c(-c2ccnc(N)n2)s1 [dabrafenib]
- median duration of response (DOR) [1]: 5.6 months

Molecule: nivolumab: PD-1 inhibitor, heavy chain SEQ ID NO:158, light chain SEQ ID NO:159
- Treatment-related adverse events leading to discontinuation of therapy [2]: 7.7%
- rate of durable responses relative to aldesleukin treatment (metastatic melanoma; metastatic melanoma): approximately double
- ORR (metastatic melanoma; previously treated patients): 32%

Molecule: ipilimumab: CTLA-4 inhibitor, heavy chain SEQ ID NO:208, light chain SEQ ID NO:209
- Treatment-related adverse events leading to discontinuation of therapy [2]: 14.8%

Molecule: des-alanyl-1, serine-125 human IL-2 [aldesleukin]
- overall objective response rate (ORR) (metastatic melanoma; high-dose aldesleukin, metastatic melanoma): 16%
- durable complete tumor regressions (CRs) (metastatic melanoma; high-dose aldesleukin, treated patients with metastatic melanoma): up to 6%
